Reference: patent publication US20090029979A1, “5-HTX MODULATORS” (BIO-MEDISINSK INNOVASJON AS, priority 2005, published 2009)
Like-named read-outs stand apart in the source and are kept apart here.

Experiments:
human 5-HT4(b) receptors [1] = target: T1, human 5-HT4(b) receptors (Homo sapiens, UniProt Q13639); test: Adenylyl cyclase assay in membranes of HEK293 cells stably expressing human 5-HT4(b) receptors; assay type: biochemical; conditions: for Kb: where n = 2, ± half-range, read-out: Antagonist pKb value (pKb ± SEM) (converted)
T1 construct: expressed in transfected cells
Protocol: (§1) The development of HEK293 cell lines stably expressing human 5-HT4(b) receptors was described and published previously (Bach et al. 2001). Briefly, HEK293 cells (ATCC) were grown in Dulbecco's modified Eagle's medium with 10% fetal calf serum and penicillin (100 U/ml) and streptomycin (100 μg/ml). Cells were transfected with plasmid DNA (pcDNA3.1(−) containing human 5-HT4(b) receptor cDNA) using SuperFect Transfection Reagent (QIAGEN) according to the manufacturers protocol. Serial dilutions of transfected cells were plated in 96 well plates containing G418 (geneticin; Amersham) at 0.4 mg/ml, and isolated single colonies of cells transformed to the neomycin-resistant phenotype were expanded and tested for expression of serotonin receptors by measuring serotonin-stimulated adenylyl cyclase activity (Themmen et al. 1993). Transformed cells were always grown in the presence of G418 (0.4 mg/ml). For binding and adenylyl cyclase analysis, stable cell lines were grown and maintained in UltraCULTURE™ general purpose serum-free medium (BioWhittaker, Walkersville, Md., USA), supplemented with L-glutamine (2 mM), penicillin (100 U/ml) and streptomycin (100 μg/ml).
(§2) Membranes were prepared from stably transfected HEK293 cells cultured on 150-mm cell culture dishes and grown to 80% confluence in serum-free medium (UltraCULTURE™, BioWhittaker) with penicillin (10 U/ml) and 2 mM L-Glutamine (BioWhittaker). Cells were washed twice with 10 ml ice-cold HBSS, scraped with a rubber policeman in 10 ml ice-cold HBSS and collected by centrifugation at 800 g for 5 min at 4° C. The cell pellet was resuspended in 1 ml/dish ice-cold STE buffer (27% (w/v) sucrose, 50 mM Tris-HCl, pH 7.5 at 20° C., 5 mM EDTA) and homogenized with an Ultra-Turrax (IKA) homogenizer, using five 10 s bursts with 30 s cooling in ice-water between bursts. To remove nuclei, the homogenate was centrifuged at 300 g for 5 min at 4° C. and the supernatant was further centrifuged at 17000 g for 20 min at 4° C. and the supernatant removed. The crude membrane pellet was resuspended with ten strokes of tight fitting pestle B in a Dounce glass-glass homogenizer in 1 ml/dish ice-cold TE (50 mM Tris-HCl, pH 7.5 at RT, 5 mM EDTA). This procedure was repeated twice and the resuspended membranes were finally aliqouted and flash frozen in liquid nitrogen and stored at −70° C. until use.
Adenylyl cyclase activity was measured by determining conversion of [α-^32P]ATP to [^32P]cAMP in membranes prepared in STE by homogenization of cells grown and washed as described above in a Dounce glass-glass homogenizer by 10 strokes with the tight-fitting pestle. Membranes were kept on ice prior to assay. Adenylyl cyclase activities were measured on 10-μl aliquots in a final volume of 50 μl in the presence of 0.1 mM [α-^32P]ATP (1-2×10^6 cpm/assay), 4 mM MgCl2, 20 μM GTP, 1 mM EDTA, 1 mM [^3H]cAMP (ca. 10,000 cpm/assay), 1 μM 3-isobutyl-1-methyl xanthine (IBMX; Sigma), a nucleoside triphosphate regenerating system consisting of 20 mM creatine phosphate (Sigma), 0.2 mg/ml creatine phosphokinase (Sigma) and 40 U/ml myokinase (Sigma) and additives described in the text and figures. When forskolin (Calbiochem, La Jolla, Calif., USA) was used the concentration was 100 μM. Incubations were for 20 min at 32° C. Cyclic AMP formed was quantified by the double column chromatography system of Salomon et al. (1974) as modified by Bockaert et al. (1976).
(§3) Binding and adenylyl cyclase data were analyzed by non-linear regression using Microsoft Excel with the Solver add-in, using the below equations.
Activation of adenylyl cyclase—The data were fit to the equation
where a is basal adenylyl cyclase activity, b is maximal adenylyl cyclase activity stimulated by the agonist, c is EC50, and x is the concentration of agonist.

human 5-HT4(b) receptors [2] = target: T1, human 5-HT4(b) receptors; test: Radioligand binding assay with [3H]GR113808, membranes of HEK293 cells stably expressing human 5-HT4(b) receptors
Protocol: as §1, §2
(§4) Binding assays were performed in 96-well, round-bottom microtiter plates with total reaction volumes of 50-200 μl, containing the indicated concentration of [^3H]GR113808 with or without competing unlabelled ligand in a binding buffer containing 50 mM Tris-HCl (pH 7.5 at RT), 1 mM EDTA, 5 mM EGTA, 2 mM MgCl2, 1 mM ascorbate, 0.1% BSA and 100 μM GTP. The plates were incubated at 23° C. for 60 min and harvested onto UniFilter™-96 GF/C™ (Packard Instrument Co., Meriden, Conn., USA), presoaked in 0.3% polyethyleneimine (Sigma), using a Packard FilterMate Universal Harvester with 96-well format, and washed 4-6 times with approximately 0.25 ml/well of ice-cold buffer, containing 50 mM Tris-HCl (pH 7.0 at RT) and 2 mM MgCl2. The filters were dried and counted at approximately 40% efficiency in a Top-Count liquid scintillation counter (Packard), using 20 μl per filter well of Micro-Scint liquid scintillation cocktail (Packard).
as §3
Competitive binding assays—The data were fit to the equation
where a is non-specific binding, b is total binding in the absence of competitor, c is IC50, and x is the concentration of competitor. Where relevant, relative binding data were obtained by recalculating the data using a=0 and b=100.
IC50 values from competitive binding assays were converted to Kb values by the method of Cheng and Prusoff (1973).

human 5-HT7(a) receptors = target: T2, human 5-HT7(a) receptors (Homo sapiens, UniProt P34969); test: Radioligand binding assay with [3H]5-CT, membranes of HEK293 cells stably expressing human 5-HT7(a) receptors; conditions: 5-HT7 ligands, values are pKd ± half-range, read-out: Binding affinity (pKd value) (pKd ± SEM) (converted)
T2 construct: expressed in transfected cells
Protocol: as §4
The same materials and methods described in example 83 were used for the biological testing of hydrophilic 5-HT7 and 5-HT2A ligands. Membrane preparations of HEK293 cell lines stably expressing human 5-HT7(a) receptors (Krobert et al. 2001), or HEK293 cells transiently transfected with human 5-HT2A receptor were used in the binding assays. 5-Carboxamido [^3H]tryptamine trifluoroacetate ([^3H]5-CT) and [^3H]ketanserin were used as radioligands in binding assays testing 5-HT7 and 5-HT2A ligands, respectively.
[^3H]5-CT (91 Ci/mmol) was from Amersham (Buckinghamshire, England). [^3H]ketanserin (72.2 Ci/mmol) was from Perkin Elmer (Boston, Mass., USA).

[3] = [3H]GR113808, HEK293 membranes, human 5-HT4(b), where n = 2, ± half-range, read-out: Binding affinity (pKd value) (pKd ± SEM) (converted)

T1 sequence (Q13639 whole entry): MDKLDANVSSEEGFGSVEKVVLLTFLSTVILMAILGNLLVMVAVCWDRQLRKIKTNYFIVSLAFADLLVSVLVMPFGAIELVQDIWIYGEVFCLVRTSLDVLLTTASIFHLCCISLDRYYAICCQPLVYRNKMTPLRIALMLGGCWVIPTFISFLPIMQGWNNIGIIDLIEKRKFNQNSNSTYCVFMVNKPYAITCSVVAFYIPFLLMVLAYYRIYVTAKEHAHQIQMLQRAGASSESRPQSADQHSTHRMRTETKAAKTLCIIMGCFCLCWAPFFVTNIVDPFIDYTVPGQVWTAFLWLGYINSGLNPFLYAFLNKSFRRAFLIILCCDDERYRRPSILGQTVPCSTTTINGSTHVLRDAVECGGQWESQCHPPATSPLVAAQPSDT
T2 sequence (P34969 1-445 isoform P34969-2): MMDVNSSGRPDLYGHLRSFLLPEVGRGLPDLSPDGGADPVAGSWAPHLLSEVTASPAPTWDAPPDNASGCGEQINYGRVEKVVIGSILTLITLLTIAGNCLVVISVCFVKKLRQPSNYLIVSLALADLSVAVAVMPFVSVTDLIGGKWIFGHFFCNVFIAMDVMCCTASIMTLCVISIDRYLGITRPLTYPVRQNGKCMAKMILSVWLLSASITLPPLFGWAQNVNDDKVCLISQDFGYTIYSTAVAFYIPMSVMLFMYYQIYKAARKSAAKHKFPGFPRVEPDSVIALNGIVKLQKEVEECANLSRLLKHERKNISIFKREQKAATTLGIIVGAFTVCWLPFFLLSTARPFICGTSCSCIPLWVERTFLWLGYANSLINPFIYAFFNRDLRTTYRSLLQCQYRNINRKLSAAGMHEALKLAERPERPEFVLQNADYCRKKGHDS

Row | Kd (human 5-HT4(b) receptors [2]; [3]) [nM] | SMILES | Agonist/Antagonist properties (human 5-HT4(b) receptors [1]) | Kb (human 5-HT4(b) receptors [1]) [nM] | Kd (human 5-HT4(b) receptors [2]) [nM] | Kd (human 5-HT7(a) receptors) [nM]
1 | – | COC(=O)CCCCCN1CCC(CNC(=O)c2c3n(c4ccccc24)CCCO3)CC1 [Example 50] | Antagonist | 0.759 | 0.135 | –
2 | – | COC(=O)c1ccc(CN2CC=C(c3c[nH]c4ccc(OC)cc34)CC2)cc1 [Example 9] | – | – | – | 8510
3 | – | CCOC(=O)CCCN1CC=C(c2c[nH]c3ccccc23)CC1 [Example 70] | – | – | – | 661
4 | 5.01 | O=C(CCCN1CCC(COC(=O)c2c[nH]c3ccccc23)CC1)OCC(Cl)(Cl)Cl [Example 12, 1H-indole-3-carboxylic acid 1-[3-(2,2,2-trichloroethyl-ethoxycarbonyl)-propyl]-piperidine-4-ylmethyl ester] | – | 0.741 | – | –
5 | 0.813 | O=C(O)CN1CCN(S(=O)(=O)CCCN2CCC(CNC(=O)c3cccc4c3OCCO4)CC2)CC1 [Example 67] | Antagonist | 2.75 | – | –
6 | – | CCOC(=O)CCCN1CCC(CNC(=O)c2c3n(c4ccccc24)CCCO3)CC1 [Example 49] | Antagonist | 1.55 | 0.123 | –
7 | 20 | CCOC(=O)CCCN1CCC(CNC(=O)c2cc(Cl)c(N)cc2OC)CC1 [Example 40] | Partial agonist | 66.1 | – | –
8 | 1000 | O=C(O)CCCN1CCC(NC(=O)c2cccc3ccccc23)CC1 [Example 17] | – | 38000 | – | –
9 | – | COC(=O)c1ccc(CN2CCN(CCCCC34CCCc5cccc(c53)NC4=O)CC2)cc1 (stereo not shown) [Example 75] | – | – | – | 15800
10 | 0.912 | O=C(O)CCCN1CCC(COC(=O)c2c[nH]c3ccccc23)CC1 [Example 13, 1H-indole-3-carboxylic acid 1-(3-carboxy-propyl)-piperidin-4-ylmethyl ester] | Antagonist | 7.08 | – | –
11 | – | COC(=O)c1ccc(CN2CC=C(c3c[nH]c4ccccc34)CC2)cc1 [Example 68] | – | – | – | 11500
12 | – | O=C(O)c1ccc(CN2CCN(CCCCC34CCCc5cccc(c53)NC4=O)CC2)cc1 (stereo not shown) [Example 76] | – | – | – | 135000
13 | 110 | CCOC(=O)CCCN1CCC(CNC(=O)c2c[nH]c3ccccc23)CC1 [Example 60] | Antagonist | 1620 | – | –
14 | – | O=C(CCCN1CCC(CNC(=O)c2c3n(c4ccccc24)CCCO3)CC1)OCC(Cl)(Cl)Cl [Example 51] | – | 0.537 | 0.263 | –
15 | – | O=C(NCC1CCN(Cc2ccccc2)CC1)c1c2n(c3ccccc13)CCCO2 [Example 47] | Antagonist | 0.427 | 0.158 | –
16 | – | O=C(O)c1ccc(CN2CC=C(c3c[nH]c4ccccc34)CC2)cc1 [Example 69] | – | – | – | 81300
17 | – | CCCCN1CCC(CNC(=O)c2c3n(c4ccccc24)CCCO3)CC1 [SB207266, reference compound] | Antagonist | – | – | –
18 | 42.7 | O=C(OCC1CCN(Cc2ccccc2)CC1)c1cccc2ccccc12 [Example 22, 1-[(1-benzylpiperidin-4-yl)carboxymethyl] napthalene] | Weak partial | 11.2 | – | –
19 | 3630 | O=C(O)CCCN1CCC(CNC(=O)c2c[nH]c3ccccc23)CC1 [Example 62] | – | 28200 | – | –
20 | 1580 | CCOC(=O)CCCN1CCC(NC(=O)c2cccc3ccccc23)CC1 [Example 18] | Antagonist | 3240 | – | –
21 | 12.9 | O=C(O)CCCN1CCC(COC(=O)c2cccc3ccccc23)CC1 [Example 26] | Weak partial | 69.2 | – | –
22 | 6.46 | CCOC(=O)CCCN1CCC(COC(=O)c2cccc3ccccc23)CC1 [Example 25] | Antagonist | 6.61 | – | –

Row | SMILES | Kd (human 5-HT4(b) receptors [2]; [3]) [nM] | Agonist/Antagonist properties (human 5-HT4(b) receptors [1]) | Kb (human 5-HT4(b) receptors [1]) [nM] | Kd (human 5-HT4(b) receptors [2]) [nM] | Kd (human 5-HT7(a) receptors) [nM]
23 | CC(C)n1nc(C(=O)NC2CCN(Cc3ccc(C(=O)OCC(Cl)(Cl)Cl)cc3)CC2)c2ccccc21 [Example 35] | 1200 | Partial agonist | 724 | – | –
24 | CC(C)n1nc(C(=O)NC2CCN(CCCC(=O)O)CC2)c2ccccc21 [Example 33] | 692 | Partial agonist | 1050 | – | –
25 | CCOC(=O)CCCN1CCC(NC(=O)c2nn(C(C)C)c3ccccc23)CC1 [Example 31] | 67.6 | Partial agonist | 178 | – | –
26 | CCOP(=O)(CCN1CCC(COC(=O)c2cccc3ccccc23)CC1)OCC [Example 27] | 15.8 | Weak partial | 19.1 | – | –
27 | CC(C)n1nc(C(=O)NC2CCN(Cc3ccc(C(=O)O)cc3)CC2)c2ccccc21 [Example 36] | 2190 | – | 1150 | – | –
28 | Cn1cc(C(=O)OCC2CCN(CCNS(C)(=O)=O)CC2)c2ccccc21 [GR113808, 1-methyl-1H-indole-3-carboxylic acid, [1-[2-[(methylsulfonyl)amino]ethyl]-4-piperidinyl]methyl ester, reference compound] | 0.0813 | Antagonist | 0.537 | – | –
29 | CC(C)n1nc(C(=O)NC2CCN(Cc3ccccc3)CC2)c2ccccc21 [Example 29, N-(1-benzylpiperidin-4-yl)-1-isopropylindazole-3-carboxamide] | 200 | Partial agonist | 309 | – | –
30 | CCOP(=O)(CCN1CCC(CNC(=O)c2c3n(c4ccccc24)CCCO3)CC1)OCC [Example 53] | 1.32 | Antagonist | 2.51 | – | –
31 | O=C(O)CCCN1CCC(CNC(=O)c2c3n(c4ccccc24)CCCO3)CC1 [Example 52] | 2.09 | – | 11 | – | –
